Tests used:
[1] = tested on: symptoms of the menopause transition state; assay: Trial of progesterone for treating symptoms of the menopause transition state (Example 1); format: in vivo, women; conditions: greater than 100 patients, low dose e.g. 25 mg twice a day
Method: It is apparent based on initial observations that supplementing with a low dose progesterone alleviates symptoms in women transitioning into menopause. The question then becomes, if a person is experiencing symptoms of estrogen dominance does failing to treat estrogen dominance result in a greater risk of breast cancer, uterine cancer, and cardiovascular disease. Supplementing with progesterone, e.g., at 25 mg twice a day can improve many symptoms associated with menopause transition. […] Micronized progesterone (25 mg) Dosing regimens of interest: One tablet bid (twice a day); Two tablets qhs (each night at bedtime); One tablet qam (every morning), two tablets qhs (each night at bedtime).

[2] = tested on: symptoms associated with menopause transition; assay: Observational study of low dose oral micronized progesterone in menopause transition, Menopause Rating Scale (MRS); format: in vivo, women
Source text: Women between the ages of 40 to 55 years of age who were experiencing symptoms consistent with menopause transition were offered a trial of a low dose progesterone to alleviate their symptoms. The primary complaint for inclusion in the study was alterations in mood defined as depressive mood, irritability, or anxiety on the Menopause Rating Scale (MRS). A score of 2-4 on these mood changes was required to be included in the study. One additional symptom (sleep problems, hot flushes, physical and mental exhaustion) on the MRS was required, with a minimum score of 1, to be included. Patients with a history of breast cancer, actively trying to conceive, or in menopause were excluded from the study. Menopause was defined as no menses for greater than one year or surgical removal of the ovaries. Patients were consented for a trial of oral micronized progesterone at 25 mg twice a day. Response to treatment was evaluated in the office after 3 months of treatment. Data was collected over a one-year time period, September 2018-September 2019. The menopause transition time, referred to as perimenopause, includes both the early and late perimenopausal group. Patient selection was classified according to STRAW (Stages of Reproductive Aging Workshop) classification. Late perimenopause was defined as menstruation in the previous/last 2-12 months, but not in the previous/last 2 months. Early perimenopause was defined as increasing irregularity of menses without skipping periods (7 days difference) from the beginning of a given cycle to the next. The Menopause Rating Scale was utilized to quantify qualitative symptoms associated with the menopause transition. Given treatment differences in the symptoms that impact person transitioning through menopause, attention was focused on 6 components of the MRS; hot flushes, sleep problems, depressive mood, irritability, anxiety, and physical/mental exhaustion. The scoring scheme increases point by point with increasing severity of subjectively perceived symptoms in each of those 6 items (severity 0 [no complaints] . . . 4 scoring points [very severe symptoms]). The respondent rated their personal symptoms on a 0 to 4 scale for each item. The MRS was chosen as a result of being a reliable measure of quality of life in aging women of various regions over time.

For CC(=O)[C@H]1CC[C@H]2[C@@H]3CCC4=CC(=O)CC[C@]4(C)[C@H]3CC[C@]12C [micronized progesterone, progesterone], the “subsequent diagnosis of breast cancer, uterine cancer, or a cardiovascular event” value [1] was “not one patient was subsequently diagnosed with breast cancer, uterine cancer, or a cardiovascular event”, the “response of patients who altered the dosing regimen” value ([2]; once a day or two tablets (50 mg) at night, 14 patients excluded from the study) was “noted benefits and chose to continue the medication” and the “patients with at least a one-point improvement in MRS symptom score, physical and mental exhaustion” value ([2]; oral 25 mg twice a day, 3 months, 12 of 19 patients who noted physical and mental exhaustion) was 63%. For the same molecule, the “patients with at least a one-point improvement in MRS symptom score, sleep problems” value ([2]; oral 25 mg twice a day, 3 months, 27 of 32 patients who noted sleep problems) was 84%, the “patients with at least a one-point improvement in MRS symptom score, hot flushes” value ([2]; oral 25 mg twice a day, 3 months, 44 of 48 patients who noted hot flushes) was 92% and the “patients who did not report side effects to the medication” value ([2]; oral 25 mg twice a day, 3 months, of 55 patients evaluated) was 54 patients. The “patients reporting MRS symptom score of 0” value ([2]; oral 25 mg twice a day, at 3 months, 44 of 55 patients) was 80%, the “discontinuation because of a diagnosis of breast cancer, thromboembolic event, or abnormal uterine bleeding” value ([2]; oral 25 mg twice a day, during the study period) was “No patient discontinued the medication” and the “patients with at least a two-point improvement in MRS symptom score related to mood changes” value ([2]; oral 25 mg twice a day, evaluated at 3 months, 52 of 55 patients) was 94.5%. For the same molecule, the “discontinuation because of an adverse effect” value ([2]; oral 25 mg twice a day, prior to the 3 month follow up) was “One patient discontinued the medication prior to the 3 month follow up secondary to worsening headaches”.

From patent US20210386757A1, “Methods of Treating Menopausal Symptoms Using Low Dose Progesterone” (priority 2018, published 2021)
